Assay results as given in patent publication US20230000808A1, “COMPOSITIONS AND METHODS EXCLUDING OR WITH REDUCED GLUTAMINE FOR THE TREATMENT OF HEMOGLOBINOPATHIES AND THALASSEMIAS” (AXCELLA HEALTH INC., priority 2019, published 2023).

How the values were obtained:
Assay type in all cases: cell-based, human
sICAM-1 = test: Soluble ICAM-1 in HLMVEC/TNF-α model (Luminex); settings: for sICAM-1 expression relative to TNF Control, Mean % Change: 20×HMDB amino acids, 24 h co-treatment
Procedure: (§1) Cells were incubated at 37° C., 5% CO2 in a humidified incubator. Cells were passaged at least 1-2 times in the complete growth medium every 2-3 days until ready to plate for cell culture studies. Once ready for experiment, HLMVECs were seeded at a density of 6K cells per well of the 96 well optical microplates (Thermofisher) in the complete growth medium described above and the plated cells were incubated for 24 hours at 37° C. in a humidified incubator with 5% CO2. […] The values are published in the Human Metabolome Database (Wishart D S, et al., Nucleic Acids Res. 2007 January; 35:D521-6) which is hereby incorporated by reference in its entirety. The medium was also supplemented with growth factors & antibiotics from EGM2-MV kit (Lonza) except the kit-provided FBS which was substituted with dialyzed FBS (Hyclone). […]). […] were run in duplicate and data was normalized to corresponding TNF-α control for respective treatments as specified in the tables. Mean percent change in level of adhesion markers are reported herein. Statistical analysis was done using two sample t-test.

HLMVECs = test: Mitochondrial stress test, oxygen consumption rate in HLMVEC/TNF-α model (Seahorse); settings: for Maximal respiration (OCR) relative to TNF Control, Mean % Change: HLMVEC/TNF-α model, 24 h, Seahorse
Procedure: Cells were incubated at 37° C., 5% CO2 in a humidified incubator. Cells were passaged at least 1-2 times in the complete growth medium every 2-3 days until ready to plate for cell culture studies. Once ready for experiment, HLMVECs were seeded at a density of 6K cells per well of the 96 well optical microplates (Thermofisher) in the complete growth medium described above and the plated cells were incubated for 24 hours at 37° C. in a humidified incubator with 5% CO2. […] The values are published in the Human Metabolome Database (Wishart D S, et al., Nucleic Acids Res. 2007 January; 35:[…]-6) which is hereby incorporated by reference in its entirety. The medium was also supplemented with growth factors & antibiotics from EGM2-MV kit (Lonza) except the kit-provided FBS which was substituted with dialyzed FBS (Hyclone). […] Using the Agilent Seahorse XF Cell Mito Stress Test Kit (103015-100), parameters of mitochondrial function were studied by directly measuring the oxygen consumption rate (OCR) of HLMVECs on the Seahorse Flux Analyzer (Agilent Technologies) following the manufacturer's recommended protocol and prescribed controls in the kit. The co-treatment cell culture medium after 24 h incubation was removed & aliquoted for adhesion & inflammation biomarker analyses as described above and the HLMVECs in the 96-well plate were further incubated at 37° C. in a non-CO2 incubator for 45 minutes to 1 hour in the pre-warmed Seahorse assay medium supplemented with 10 mM glucose and 1 mM pyruvate but without 2 mM L-glutamine to allow unambiguous evaluation of amino acid combinations in the study. Oxygen consumption was measured at the end of incubation by the Seahorse Flux Analyzer. Four replicates for each treatment were processed for Seahorse studies. Mean percent change in maximal respiration is reported. Statistical analysis was done using one-way ANOVA two sample t-test.

sVCAM-1 = test: Soluble VCAM-1 in HLMVEC/TNF-α model (Luminex); settings: for sVCAM-1 expression relative to TNF Control, Mean % Change: 20×HMDB amino acids, 24 h co-treatment
Procedure: as §1

IL-6 = IL-6 in HLMVEC/TNF-α model (ELISA); settings: for IL-6 expression relative to TNF Control, Mean % Change: HLMVEC/TNF-α model, 24 h, ELISA
Procedure: Cells were incubated at 37° C., 5% CO2 in a humidified incubator. Cells were passaged at least 1-2 times in the complete growth medium every 2-3 days until ready to plate for cell culture studies. Once ready for experiment, HLMVECs were seeded at a density of 6K cells per well of the 96 well optical microplates (Thermofisher) in the complete growth medium described above and the plated cells were incubated for 24 hours at 37° C. in a humidified incubator with 5% CO2. […] The values are published in the Human Metabolome Database (Wishart D S, et al., Nucleic Acids Res. 2007 January; 35:[…]-6) which is hereby incorporated by reference in its entirety. The medium was also supplemented with growth factors & antibiotics from EGM2-MV kit (Lonza) except the kit-provided FBS which was substituted with dialyzed FBS (Hyclone). […] Human MCP-1 was measured by ELISA (Human […] DuoSet ELISA, R&D Systems) at 1/70 dilution in 1× Reagent Diluent (Reagent Ancillary Kit 2, R&D Systems). Samples were run in triplicates. […] Samples were run in triplicates. Mean percent change in cytokine levels relative to vehicle are reported herein. Statistical analysis was done using two sample t-test.

[1] = test system: sickle cell disease patient blood; test: ROS (DCF fluorescence) in sickle cell disease patient whole blood; settings: both treated with H2O2 and untreated, in DPBS
Procedure: Whole blood samples were appropriately diluted in Ca^2+- and Mg^2+-free Dulbecco's phosphate buffered saline (DPBS, Life Technologies) and the concentration of erythrocytes (RBC/mL) was measured on a Cellometer K2 Fluorescent Viability Cell Counter according to the manufacturer's RBC/AOPI protocol (Nexcelom Biosciences).
Cells were then diluted to 1×10^6 RBC/mL into either prewarmed 37° C. […] 2′-7′-dichlorofluorescin diacetate (DCF, Millipore Sigma), 20 mM in dimethyl sulfoxide (DMSO, Fisher) were added to a working concentration of 100 μM. Cells were incubated with dye for 15 minutes at 37° C., 5% CO2 in a tissue culture incubator, washed once, and resuspended in the 0.9 volumes of the same prewarmed 37° C. buffer with 5 minute spins at 500×g, accel/decal=5 in a swing arm centrifuge (Beckman Coulter). […] Where possible due to solubility constrains, pH-7.4-adjusted stock solutions of amino acids were used. Wells were mixed by pipetting and plates incubated at 37° C., 5% CO2 in a tissue culture incubator for 30 minutes. Optionally, 40 mM H2O2 (Millipore Sigma) freshly prepared in the same buffer was added to bring the concentration to 2 mM, wells mixed by pipetting, and plates were incubated an additional 30, 60, 120, or 240 minutes before fluorescence measurement of ROS signal on a Synergy H4 (BioTek) microplate reader with excitation=488 nm and emission=530 nm, and gain either set to autogain, 75, or 100.

HLMVEC = test: META-rank score, composite of VCAM1, ICAM1 and IL6 in the HLMVEC model; settings: HLMVEC + TNF-α; lower score = more optimal; 20x HMDB / 5 mM
Procedure: The ability of single amino acids and combinations to simultaneously impact these phenotypes was measured by a META-rank score (Tables 17 and 18). META-rank score is a composite measure that considers the optimal impact on all 3 phenotypes (e.g. decrease VCAM1, ICAM1, and IL6) in the HLMVEC model.

Structure (SMILES): NC(=O)CC[C@H](N)C(=O)O [Glutamine, L-glutamine]
- sICAM-1 levels (sICAM-1; 0.5 ng/mL TNF-α (low), 20×HMDB, 24 h): failed to reduce
- sICAM-1 expression relative to TNF Control, Mean % Change (sICAM-1; TNF Conc 0.5 ng/mL): 5.573%
- sICAM-1 expression relative to TNF Control, Mean % Change (sICAM-1; TNF Conc 25 ng/mL): 142.4986%
- sICAM-1 level increased by (sICAM-1; TNF-α 25 ng/mL, 20×HMDB, 24 h): 142%
- Maximal respiration (OCR) relative to TNF Control, Mean % Change (HLMVECs; TNF Conc 0.5 ng/mL): −47.7527%
- Maximal respiration (OCR) relative to TNF Control, Mean % Change (HLMVECs; TNF Conc 25 ng/mL): −27.9927%
- oxygen consumption (HLMVECs; either TNF-α concentration): did not support oxygen consumption
- oxygen consumption (HLMVECs; higher TNF-α concentration of 25 ng/mL): appeared to get worse
- sVCAM-1 expression relative to TNF Control, Mean % Change (sVCAM-1; TNF Conc 0.5 ng/mL): 566.0015%
- sVCAM-1 expression relative to TNF Control, Mean % Change (sVCAM-1; TNF Conc 25 ng/mL): 755.2941%
- increase in sVCAM-1 level relative to control (sVCAM-1; both TNF-α groups): > 570%
- IL-6 expression relative to TNF Control, Mean % Change (IL-6; TNF Conc 0.5 ng/mL): −1.168%
- IL-6 expression relative to TNF Control, Mean % Change (IL-6; TNF Conc 25 ng/mL): 14.3622%
- lowering IL-6 (IL-6; either TNF-α group): largely ineffective

Structure (SMILES): CC(=O)N[C@@H](CS)C(=O)O [N-Acetyl Cysteine, N-acetylcysteine]
- ROS measured in whole blood [1]: reduced
- Meta-Rank (Table 18) (HLMVEC): 4
- Metarank (Table 17) (HLMVEC): 6
